In ChEMBL document CHEMBL6153145, “Isocoumarins from Spegazzinia sp. MDCW-573 with Antibacterial and Proangiogenic Activities” (2025):
In brackets after ≈: the same amount, converted by molar mass. Activity calls are given as the source filed them. The rule behind the calls is not given here.

Experiments:
A549 = assay: Cytotoxicity against human A549 cells; format: functional, cell-based
HepG2 = assay: Cytotoxicity against human HepG2 cells; format: functional, cell-based
HCT-116 = assay: Cytotoxicity against human HCT-116 cells; format: functional, cell-based
MCF7 = assay: Cytotoxicity against human MCF7 cells; format: functional, cell-based
HeLa = assay: Cytotoxicity against human HeLa cells; format: functional, cell-based
Staphylococcus aureus = assay: Antibacterial activity against Staphylococcus aureus by broth microdilution method; format: functional
Pseudomonas aeruginosa = assay: Antibacterial activity against Pseudomonas aeruginosa by broth microdilution method; format: functional
Escherichia coli = assay: Antibacterial activity against Escherichia coli by broth microdilution method; format: functional
Danio rerio [1] = species on record: Danio rerio; assay: Induction of pro-angiogenic activity in transgenic Tg (flk1:EGFP) zebrafish model assessed as growth of intersegmental vessel at 10 uM for 24 hrs by olympus fluorescence microscopy analysis; format: functional, organism-based
Danio rerio [2] = species on record: Danio rerio; assay: Induction of pro-angiogenic activity in transgenic Tg (flk1:EGFP) zebrafish model assessed as growth of intersegmental vessel at 40 uM for 24 hrs by olympus fluorescence microscopy analysis; format: functional, organism-based
Danio rerio [3] = species on record: Danio rerio; assay: Induction of pro-angiogenic activity in transgenic Tg (flk1:EGFP) zebrafish model assessed as growth of intersegmental vessel at 20 uM for 24 hrs by olympus fluorescence microscopy analysis; format: functional, organism-based

Structure (SMILES)	MIC (Staphylococcus aureus) [µg/mL]	MIC (Pseudomonas aeruginosa) [µg/mL]	MIC (Escherichia coli) [µg/mL]	Activity (A549)	Activity (HepG2)	Activity (HCT-116)	Activity (MCF7)	Activity (HeLa)	Activity (Danio rerio [1])	Activity (Danio rerio [2])	Activity (Danio rerio [3])
CCO[C@H]1c2cc(O)c(OC)c(O)c2C(=O)O[C@@H]1C				inactive	inactive	inactive	inactive	inactive			
COc1c(O)cc2c(c1O)C(=O)O[C@H](C)[C@@H]2Oc1cc2c(c(O)c1OC)C(=O)O[C@H](C)C2	64 (≈ 143 µM)	32 (≈ 71.7 µM)	1 (≈ 2.24 µM)	inactive	inactive	inactive	inactive	inactive			
COc1c(O)cc2cc(C)oc(=O)c2c1O	4 (≈ 18 µM)	32 (≈ 144 µM)	16 (≈ 72 µM)	inactive	inactive	inactive	inactive	inactive			
COc1c(O)cc2c(c1O)C(=O)O[C@H](C)[C@H]2Oc1c(Cl)c2c(c(O)c1OC)C(=O)O[C@H](C)C2	64 (≈ 133 µM)	32 (≈ 66.5 µM)	32 (≈ 66.5 µM)	inactive	inactive	inactive	inactive	inactive			
COc1c(O)cc2c(c1O)C(=O)O[C@H](C)[C@H]2Oc1cc2c(c(O)c1OC)C(=O)O[C@H](C)C2	2 (≈ 4.48 µM)	32 (≈ 71.7 µM)	1 (≈ 2.24 µM)	inactive	inactive	inactive	inactive	inactive			
C[C@H]1OC(=O)c2c(O)cc(O)cc2[C@H]1Cl	64 (≈ 280 µM)	64 (≈ 280 µM)	32 (≈ 140 µM)	inactive	inactive	inactive	inactive	inactive			
COc1c(O)cc2c(c1O)C(=O)O[C@H](C)[C@@H]2Oc1c(Cl)c2c(c(O)c1OC)C(=O)O[C@H](C)C2	64 (≈ 133 µM)	32 (≈ 66.5 µM)	64 (≈ 133 µM)	inactive	inactive	inactive	inactive	inactive			
O=C(O)c1cn(C2CC2)c2cc(N3CCNCC3)c(F)cc2c1=O [CIPROFLOXACIN]	0.5 (≈ 1.51 µM)	4 (≈ 12.1 µM)									
COc1c(O)cc2c(c1O)C(=O)O[C@H](C)[C@H]2Oc1cc2c(c(O)c1OC)C(=O)O[C@H](C)[C@@H]2O	16 (≈ 34.6 µM)	16 (≈ 34.6 µM)	64 (≈ 138 µM)	inactive	inactive	inactive	inactive	inactive			
C[C@@H]1Cc2cc(O)c(O)c(O)c2C(=O)O1	64 (≈ 304 µM)	32 (≈ 152 µM)	64 (≈ 304 µM)	inactive	inactive	inactive	inactive	inactive			

Now from value to molecule, other results behind:

MIC (Staphylococcus aureus) [µg/mL]	MIC (Pseudomonas aeruginosa) [µg/mL]	MIC (Escherichia coli) [µg/mL]	Structure (SMILES)	Activity (A549)	Activity (HepG2)	Activity (HCT-116)	Activity (MCF7)	Activity (HeLa)	Activity (Danio rerio [1])	Activity (Danio rerio [2])	Activity (Danio rerio [3])
64 (≈ 129 µM)	64 (≈ 129 µM)	4 (≈ 8.05 µM)	COc1c(O)cc2c(c1O)C(=O)O[C@H](C)[C@H]2Oc1c(Cl)c2c(c(O)c1OC)C(=O)O[C@H](C)[C@@H]2O	inactive	inactive	inactive	inactive	inactive			
32 (≈ 124 µM)	32 (≈ 124 µM)	2 (≈ 7.73 µM)	COc1c(O)c(Cl)c2c(c1O)C(=O)O[C@H](C)C2	inactive	inactive	inactive	inactive	inactive			
64 (≈ 252 µM)	64 (≈ 252 µM)	16 (≈ 62.9 µM)	COc1c(O)cc2c(c1O)C(=O)O[C@H](C)[C@H]2OC	inactive	inactive	inactive	inactive	inactive			
64 (≈ 129 µM)	64 (≈ 129 µM)	8 (≈ 16.1 µM)	COc1c(O)cc2c(c1O)C(=O)O[C@H](C)[C@@H]2Oc1c(Cl)c2c(c(O)c1OC)C(=O)O[C@H](C)[C@@H]2O	inactive	inactive	inactive	inactive	inactive			
64 (≈ 129 µM)	64 (≈ 129 µM)	32 (≈ 64.4 µM)	COc1c(O)cc2c(c1O)C(=O)O[C@H](C)[C@H]2Oc1c(Cl)c2c(c(O)c1OC)C(=O)O[C@H](C)[C@H]2O	inactive	inactive	inactive	inactive	inactive	Active	Active	Active
32 (≈ 101 µM)	> 64	32 (≈ 101 µM)	COc1c(O)c(Cl)c2c(c1O)C(=O)O[C@H](C)[C@H]2OC(C)=O	inactive	inactive	inactive	inactive	inactive	Active	Active	Active
64 (≈ 266 µM)	64 (≈ 266 µM)	8 (≈ 33.3 µM)	COc1c(O)cc2c(c1O)C(=O)O[C@H](C)[C@@H]2O	inactive	inactive	inactive	inactive	inactive			
64 (≈ 233 µM)	32 (≈ 117 µM)	32 (≈ 117 µM)	COc1c(O)c(Cl)c2c(c1O)C(=O)O[C@H](C)[C@H]2O	inactive	inactive	inactive	inactive	inactive			
64 (≈ 129 µM)	32 (≈ 64.4 µM)	32 (≈ 64.4 µM)	COc1c(O)cc2c(c1O)C(=O)O[C@H](C)[C@@H]2Oc1c(Cl)c2c(c(O)c1OC)C(=O)O[C@H](C)[C@H]2O	inactive	inactive	inactive	inactive	inactive	Active	Active	Active
64 (≈ 252 µM)	64 (≈ 252 µM)	16 (≈ 62.9 µM)	COc1c(O)cc2c(c1O)C(=O)O[C@H](C)[C@@H]2OC	inactive	inactive	inactive	inactive	inactive			
64 (≈ 233 µM)	64 (≈ 233 µM)	64 (≈ 233 µM)	COc1c(O)c(Cl)c2c(c1O)C(=O)O[C@H](C)[C@@H]2O	inactive	inactive	inactive	inactive	inactive			
